Entries after “also recorded” stand apart in the source; their conditions may differ. Where no end group is shown, it is not given here.
What was measured:
hepatic stellate cells = assay: Transformation (activation) of cultured hepatic stellate cells on a plastic dish, observed under a microscope; format: cell-based, rat; details: for suppression of activation of hepatic stellate cells (morphological change with disappearance of vitamin A-containing oil droplets): Example 1, peptide 1 mM, FIG. 2; for suppression of activation of hepatic stellate cells (morphological change with disappearance of oil droplets containing vitamin A): Example 4, peptide 0.5 mM, FIG. 7
Description: (§1) According to the method previously reported (Okuno M. et al., Gastroenterology 2001; 120: 1784-1800), hepatic stellate cells were isolated from the liver of male Wistar rats (body weight: 350 to 400 g; Japan Clea), and the isolated cells were then seeded in a concentration of 1×10^6 cells/dish on a 3.5-cm culture plastic dish. Thereafter, the cells were cultured in 1 ml of Dulbecco's modified Eagle medium (DMEM; manufactured by SIGMA) containing 10% fetal calf serum (FCS; manufactured by GIBCO).
From day one of isolation of hepatic stellate cells, they were cultured for 7 days with the following peptides added in the medium; QP peptide (Gln-Ile-Leu-Ser-Lys-Leu-Arg-Leu-Ala-Ser-Pro) (SEQ ID NO: 9); QPA peptide (Gln-Ile-Leu-Ser-Ala-Ala-Ala-Leu-Ala-Ser-Pro) (SEQ ID NO: 10); and a control synthetic peptide consisting of 11 amino acids that is derived from a latent TGF-β1 LAP sequence (Thr-Gly-Val-Val-Arg-Gln-Trp-Leu-Ser-Arg-Gly; this is referred to as T200 peptide) (SEQ ID NO: 11) (please refer to FIG. 1), however anticipated not to influence TGF-β activation reaction because of the sequence being apart from the TGF-β activation control region (Gly51 to Arg110) discovered by the present inventors (International Publication WO2005/023870). […] Influence of each peptide on transformation of hepatic stellate cells (which is also referred to as activation of hepatic stellate cells) induced by culturing them on the plastic dish was observed under a microscope.
(§2) A 60 mM aqueous stock solution of each peptide was prepared, and the peptide was then dissolved in a medium to make a final concentration of 1 mM. Until the 3rd day of isolation, the aforementioned cells were treated in a DMEM medium containing 10% FCS. On the 4th day, the medium was exchanged with serum free DMEM containing 0.1% bovine serum albumin (BSA) and each peptide with a final concentration of 1 mM, and the culture was further continued for 2 to 4 days. Thereafter, the culture medium was collected as a conditioned medium, and the amount of active TGF-β1 present in the conditioned medium was measured using an ELISA kit manufactured by PROMEGA. At the same time, the state of the cells was observed under a microscope (DMIRB; manufactured by Leica) and was then photographed.
In accordance with the method described in Example 1, the influence of each of the QP peptide, QPA peptide, QPQ peptide and T200 peptide on transformation of the cultured hepatic stellate cells, which occurs by culturing cells on a plastic dish, was observed.
(§3) Each peptide was dissolved in a medium to a final concentration of 0.5 mM (approximately 500 μg/ml). At the 1st day of isolation, the aforementioned cells were treated in a DMEM medium containing 10% FCS. On the 2nd day, the medium was changed with serum free DMEM containing 0.1% BSA and each peptide at a final concentration of 0.5 mM, and the culture was further continued for 2 to 7 days. Thereafter, the culture medium was collected as a conditioned medium, and the amount of active TGF-β1 present in the conditioned medium was then quantitated using an ELISA kit manufactured by PROMEGA. At the same time, the state of the cells was observed under a microscope (DMIRB; manufactured by Leica) and photographed.

[1] = test system: endotoxin (LPS)-preadministered partially-hepatectomized mice; assay: LPS-preadministered partially-hepatectomized mice model for impaired liver regeneration, PCNA staining; format: in vivo, mouse; details: Example 2, 200 μg/head i.v., 8 times; for improvement of impaired liver regeneration due to preadministration of LPS: PCNA staining, FIG. 3 and 4
active TGF-β1 = assay: Amount of active TGF-β1 in conditioned medium of hepatic stellate cells (ELISA); format: cell-based, rat; details: for amount of active TGF-β generated into the conditioned medium, of the control / TGF-β (active TGF-β generated into the conditioned medium): Example 1, peptide 1 mM; for TGF-β (active TGF-β generated into the conditioned medium): Table 1; for inhibition of generation of the active TGF-β in the conditioned medium observed in control cells: Example 4, peptide 0.5 mM
Description: as §1, §2, §3

Row | Substance | suppression of activation of hepatic stellate cells (morphological change with disappearance of vitamin A-containing oil droplets) (hepatic stellate cells) | suppression of activation of hepatic stellate cells (morphological change with disappearance of oil droplets containing vitamin A) (hepatic stellate cells) | improvement of impaired liver regeneration due to preadministration of LPS [1] | improvement of impaired liver regeneration due to preadministration of LPS ([1]; listed as P200 peptide) | amount of active TGF-β generated into the conditioned medium, of the control (active TGF-β1) | TGF-β (active TGF-β generated into the conditioned medium) (active TGF-β1) | inhibition of generation of the active TGF-β in the conditioned medium observed in control cells (active TGF-β1) | percentage of PCNA positive cells ([1]; 48 hours after PH, FIG. 4)
1 | TGVVRQWLSRG [T200 peptide, reference compound] | did not exhibit such a suppressing effect | did not exhibit such a suppressing effect | did not exhibit such an improving effect | did not exhibited any such improving effects | 74% | 160 ± 19 pg/mL |  | 
2 | QILSKLRLASP [QP peptide] | weakly suppressing effect | significantly suppressed | significantly improved; also recorded: completely improved |  |  |  | 55% | 
3 | N-52QILSQQQQASP62-C [QPQ peptide, mutant of QP peptide with Lys56, Leu57, Arg58 and Leu59 substituted with Gln] |  | significantly suppressed; also recorded: strongest suppressing effect |  |  |  |  | 90% | 
4 | N-52QILSAAAAASP62-C (QILSAAALASP) [QPA peptide, mutant of QP peptide with Lys56, Leu57, Arg58 and Leu59 substituted with Ala] | significantly suppressed | significantly suppressed | significantly improved |  | 2% | 4 ± 1 pg/mL | 25% | 47%
